Measurements from patent US9011956B2, “Natural high-potency sweetener compositions with improved temporal profile and/or flavor profile, methods for their formulation, and uses” (The Coca-Cola Company, priority 2005, dated 2015).

Legend:
[1] = Sweetness linger sensory evaluation by expert panel (protocol of Example A); assay type: in vivo, human; design: key: 0=no sweetness linger; 1=very slight sweetness linger; 2=slight sweetness linger; 3=moderate sweetness linger; 4=moderately high sweetness linger; 5=high sweetness linger
Method: In a particular embodiment, a panel of assessors is used to measure the reduction of sweetness linger. Briefly described, a panel of assessors (generally 8 to 12 individuals) is trained to evaluate sweetness perception and measure sweetness at several time points from when the sample is initially taken into the mouth until 3 minutes after it has been expectorated. […] A decrease in score for a time point measured after the sample has cleared the mouth indicates there has been a reduction in sweetness perception.
Generally, the method of measuring sweetness comprises taking a 10 mL sample into the mouth, holding the sample in the mouth for 5 seconds and gently swirling the sample in the mouth, rating the sweetness intensity perceived at 5 seconds, expectorating the sample (without swallowing following expectorating the sample), rinsing with one mouthful of water (e.g., vigorously moving water in mouth as if with mouth wash) and expectorating the rinse water, rating the sweetness intensity perceived immediately upon expectorating the rinse water, waiting 45 seconds and, while waiting those 45 seconds, identifying the time of maximum perceived sweetness intensity and rating the sweetness intensity at that time (moving the mouth normally and swallowing as needed), rating the sweetness intensity after another 10 seconds, rating the sweetness intensity after another 60 seconds (cumulative 120 seconds after rinse), and rating the sweetness intensity after still another 60 seconds (cumulative 180 seconds after rinse). Between samples take a 5 minute break, rinsing well with water to clear the mouth.
(§1) An exemplary method of sensory evaluation is provided in the following protocol, similar to that described hereinabove. In this test protocol, none of the samples were swallowed. All samples were expectorated and the mouth was rinsed with water after the tasting. In step 1, the 10% sucrose control sample was tasted by distributing ca. 10 mL of sample quickly throughout the oral cavity, wherein the maximal “Sweetness Intensity” was measured. This intensity is defined as a 10 on a 0-15 scale where 0 is defined as no perceptible sweetness and 15, the sweetness of 15% sucrose. Immediately upon sensing maximal sweetness, the sample was expectorated, the mouth was rinsed with water and the rate of sweetness decay (“Sweetness Linger”) was measured, where attention was focused on the sweetness 3-4 min after the water rinse. The sweetness linger was rated by a panel of experts in the sensory evaluation of foods and beverages using the following scale: 0=no sweetness linger, 1=very slight sweetness linger, 2=slight sweetness linger, 3=moderate sweetness linger, 4=moderately high sweetness linger, 5=high sweetness linger. After sample tasting was complete, a salty oyster cracker was chewed followed by a water rinse, and at least 5 minutes followed before tasting the next sample.
The “Sweetness Linger” rating for sucrose observed by this protocol was defined as 0. Experimental samples were tasted by the same protocol, always allowing sufficient time between samples to ensure re-equilibration of the sensory system. Re-tasting of control samples during the course of the experiment was allowed and encouraged.
The comparison taste test was performed between two controls and addition of sweet taste improving additive on the onset and/or sweetness linger.
Where there are ranges provided in the examples, a number of beverages comprising the NHPS, such as rebaudioside-A (REBA), were made 5-7 levels from the top to the bottom range, using a 1:1 dilution of the corresponding sweet taste improving compositions. The sweetness linger rating reported was the most sugar-like in sweetness linger (the lowest numerical value) attained of all the samples (i.e., the shortest sweetness linger). The tasting protocol and sensory scores described in the exemplary protocol of Example A were used in the Examples of Set B. […]

[2] = Sweetness level as sucrose equivalent; assay type: in vivo, human
Method: as §1

[3] = assay type: physicochemical
Method: A solution of rebaudioside A (>97% pure by HPLC) was prepared in double distilled water (12.5 gm in 50 mL, 25% concentration) by stirring the mixture at 40° C. for 5 minutes. An amorphous form of rebaudioside A was formed by immediately using the clear solution for spray drying with the Lab-Plant spray drier SD-04 instrument (Lab-Plant Ltd., West Yorkshire, U.K.). The solution was fed through the feed pump into the nozzle atomizer which atomized it into a spray of droplets with the help of a constant flow of nitrogen/air. […] This dry powder (11-12 g, H2O 6.74%) was discharged continuously from the drying chamber and was collected in a bottle.

**Q.** With “mono-ammonium glycyrrhizic acid salt hydrate” as the molecule, how does the sweetness linger ([1]; control: 375 mg in one liter of carbon-treated water) read?
**A.** 5

**Q.** What about the sweetness level ([2]; 375 mg in one liter of carbon-treated water) of the same molecule?
**A.** 4 % sucrose equivalent

**Q.** With `OC[C@H]1O[C@@](CO)(O[C@H]2O[C@H](CO)[C@@H](O)[C@H](O)[C@H]2O)[C@@H](O)[C@@H]1O` [sugar, sucrose] as the molecule, how does the sweetness linger rating ([1]; control: 8 g of sugar in 100 ml of citrate buffer) read?
**A.** 0

**Q.** And the sweetness linger rating ([1]; control: 10 g in 100 ml of carbon treated water)?
**A.** 0

**Q.** And the sweetness linger rating ([1]; control: 10 g of sugar in 100 ml carbon treated water, phosphoric acid to pH 2.4-2.5)?
**A.** 0

**Q.** For rebaudioside A, which sweetness linger rating ([1]; control: 400 ppm REBA in citric acid/potassium citrate composition equivalent to diet lemon-lime beverage) is on record?
**A.** 5

**Q.** And the sweetness linger rating ([1]; control: 500 ppm REBA in carbon-treated water, phosphoric acid to pH 2.4-2.5)?
**A.** 5

**Q.** And the “sucrose equivalent of sweetness” value ([2]; 180 ppm REBA)?
**A.** 5 % sucrose

**Q.** And the “sucrose equivalent of sweetness” value ([2]; 400 ppm REBA in citric acid/potassium citrate composition)?
**A.** 8 g sucrose

**Q.** With rebaudioside A [Form 4] as the molecule, how does the “solubility in water at room temperature” value [3] read?
**A.** > 35.0%
